Patent US20250143289A1, “BIO-CONTROL COMBINATIONS, COMPOSITIONS AND METHOD OF USE” (DECCO WORLDWIDE POST-HARVEST HOLDINGS B.V., priority 2022, published 2025)

Tested on: Penicillium digitatum (Pd)
Experiment: Biocontrol efficacy on post-harvest green mold decay of harvested oranges (online spraying, drying tunnel, storage)
Format: in vivo
Conditions: online spraying at 2 L/tonne of fruits, dried in drying tunnel, observed 36 days after storage, amounts per treatment as in Table 1
Procedure: A tank mix bio-control combination was prepared consisting of Candida oleophila strain O and sodium bicarbonate. […] The microbial component was applied as water dispersible granules. The concentration of C. oleophila strain O was 2.33 g/L (0.23% w/v) and the biologically effective amount of the strain was 3×10^10 cfu/gm. The concentration of the C. oleophila strain O used was varying between 0.1 to 5% w/v of the combination.
The biocontrol efficacy of the combination of the present invention on post-harvest fungal disease caused by green mold was evaluated. […] The harvested oranges were treated with the biocontrol combination and then subjected to drying in a drying tunnel. […] The oranges were treated by online spraying of each treatment. The biologically effective amount of Candida oleophila is 3×10^10 cfu/g of the combination. Each application is made at a rate 2 L/tonne of citrus fruits. The observations were made on the treated oranges and the untreated control at 36 days after storage.

Compound: O=C([O-])O.[Na+] [Sodium bicarbonate]
- % decay on fruits: 15%
